Molecules are shown by their SMILES.

The values below come from patent US9637473B2, “Acrylamide derivatives as antimalarial agents” (priority 2013, dated 2017).

The experiment deals with P. Falciparum NF54. Nature of the experiment: Plasmodium falciparum in vitro assay ([3H]-hypoxanthine incorporation). It is filed as cell-based. The conditions noted are these: Plasmodium falciparum, Erythrocyte, P. Falciparum NF54, erythrocytic stages in human red blood cells, 50% human serum. In a few lines: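 Activity against the blood stages of Plasmodium falciparum growing in human red blood cells was measured by how much [3H]-hypoxanthine the parasites took up. Filters were dried, sealed in plastic foil containing 10 mL of scintillation fluid, and read on a Betaplate liquid scintillation counter. IC50 values came from sigmoidal inhibition curves fitted in Microsoft Excel.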
As for `O=C(/C=C/c1ccc(C(F)(F)F)cc1)N(Cc1ccnc(N2CCCC2)c1)C1CCN(C2CCCC2)CC1` [Example 206, (E)-N-(1-Cyclopentyl-piperidin-4-yl)-N-(2-pyrrolidin-1-yl-pyridin-4-ylmethyl)-3-(4-trifluoromethyl-phenyl)-acrylamide], the IC50 (commonly the concentration at which inhibition is half-maximal) turned out to be 451 nM.
On to `O=C(/C=C/c1ccc(C(F)(F)F)cc1)N(Cc1ccc(Oc2ccncc2)cc1)C1CCN(C2CCCC2)CC1` [Example 207, (E)-N-(1-Cyclopentyl-piperidin-4-yl)-N-[4-(pyridin-4-yloxy)-benzyl]-3-(4-trifluoromethyl-phenyl)-acrylamide], for which the IC50 is 412 nM.
Consider `Cc1cc(Oc2ccc(CN(C(=O)/C=C/c3ccc(C(F)(F)F)cc3)C3CCN(C4CCCC4)CC3)cc2)cc(C)n1` [Example 208, (E)-N-(1-Cyclopentyl-piperidin-4-yl)-N-[4-(2,6-dimethyl-pyridin-4-yloxy)-benzyl]-3-(4-trifluoromethyl-phenyl)-acrylamide], for which half-maximal inhibition (IC50) was put at 82 nM.
With `Cc1cc(Nc2ccc(CN(C(=O)/C=C/c3ccc(Cl)cc3)C(C)CN(C)C)cc2)ccn1` (centres unmarked) [Example 209, (E)-3-(4-Chloro-phenyl)-N-(2-dimethylamino-1-methyl-ethyl)-N-[4-(2-methyl-pyridin-4-ylamino)-benzyl]-acrylamide], the IC50 was determined as 172 nM.
In the case of `Cc1cc(Nc2ccc(CN(C(=O)/C=C/c3ccc(Cl)cc3)C3CCN(C4CC4)CC3)cc2)ccn1` [Example 210, (E)-3-(4-Chloro-phenyl)-N-(1-cyclopropyl-piperidin-4-yl)-N-[4-(2-methyl-pyridin-4-ylamino)-benzyl]-acrylamide] it was 174 nM.
